Tested on: anaerobic sulfate-reducing bacteria
Test: Sulfide control efficacy against anaerobic sulfate-reducing bacteria (colorimetric sulfide measurement after 2 days at 35° C.)
Assay type: cell-based
Settings: for Sulfide (ppm): sulfide level at the listed THPS/nitrate concentrations after 2 days at 35° C.
Procedure: Inside an anaerobic chamber (Bactron anaerobic chamber), a deoxygenated sterile salt solution (3.12 g of NaCl, 0.13 g of NaHCO3, 0.17 g of Na2SO4, 47.70 mg of KC1, 72.00 mg of CaCl2, 54.49 mg of MgSO4, 43.92 mg of Na2CO3 in 1 L water and then enriched with 5% of ATCC 1249 Modified Baar's Medium) was inoculated with a sulfate-reducing bacteria which has a high similarity in 16S rRNA gene sequence with Desulfovibrio alaskensis and Desulfovibrio vietnamensis, at a final bacterial concentrations of 10^7 CFU/mL. […] After the mixtures were incubated at 35° C. for 2 days, sulfide level in all treatments including non THPS and or nitrate controls were measured using a colorimetric method described by D. Andrew et. al in “Standard Methods for the Examination of Water and Wastewater 4500-S2-”, with a scaled down sample size (250 μl) and reagents (scaled down accordingly) to allow the analysis to be done in 96-well micro-titer plates. Final results were read using a 96-well plate reader (TECAN Sunrise) at wavelength of 580 nm.
SI is calculated as follows:
Ca/CA+Cb/CB=Synergy Index (“SI”)

Molecule	Active ppm concentration required to control sulfide below 10 ppm, Nitrate (nitrate component (sodium nitrate), 10^7 CFU/mL, 35° C., 2 days, anaerobic) [ppm]	Sulfide (ppm)	Active ppm concentration required to control sulfide below 10 ppm, THPS (THPS component, 10^7 CFU/mL, 35° C., 2 days, anaerobic) [ppm]
O=[N+]([O-])[O-].[Na+] [THPS:Nitrate 0:1, sodium nitrate]	>800	74.26	
tetrakis(hydroxymethyl) phosphonium sulfate [THPS:Nitrate 1:0]		2.48	12.50
